Data from patent US20180185408A1, “ANTIFUNGAL NYLON-3 POLYMERS AND COMBINATION THERAPY USING THEM TO TREAT FUNGAL INFECTIONS” (priority 2016, published 2018).
Converted amounts (≈) assume the structure as drawn. Like-named read-outs stand apart in the source and are kept apart here. Marks after values point to notes of the source that are not given here.

Tests used:
C. auris = test: MIC100 against yeast (CLSI M27-A3); type: cell-based, Candida auris; details: Candidozyma auris
Candida albicans = test: Checkerboard microdilution synergy (FIC); type: cell-based; details: for MIC: Candida albicans; for MIC Combined: FLC and MM:TM in combination
C. krusei = test: MIC100 against yeast (CLSI M27-A3); type: cell-based, Candida krusei
Cryptococcus amylolentus = test: MIC100 against yeast (CLSI M27-A3); type: cell-based
[1] = MM:TM (40:60) with Fluconazole, isolate K1 (Fluconazole Resistant), […]10^5 cells/mL, 30° C.

OC(Cn1cncn1)(Cn1cncn1)c1ccc(F)cc1F [FLC, fluconazole]
MIC50 (C. auris; Candida auris B11220): 4 µg/mL (≈ 13.1 µM)
MIC50 (C. auris; Candida auris C54039, Resistance AmB): 16 µg/mL (≈ 52.2 µM)
MIC (Candida albicans; 48 h, K1, FLC and MM:TM, single agent, […]10^5 cells/mL, 30°C, OD600 48 h, read-out: MIC Alone): > 164 µM
MIC (Candida albicans; 48 h, K1, Fluconazole and MM:TM, […]10^5 cells/mL, 30°C, OD600 48 h, Avg., read-out: MIC alone): > 163 µM
MIC (Candida albicans; 48 h, K1, Fluconazole and MM:TM, […]10^5 cells/mL, 30°C, OD600 48 h, trial 1, read-out: MIC alone): > 81.6 µM
MIC (Candida albicans; 48 h, K1, Fluconazole and MM:TM, […]10^5 cells/mL, 30°C, OD600 48 h, trial 2, read-out: MIC alone): > 163 µM
MIC (Candida albicans; 48 h, K1, Fluconazole and MM:TM, […]10^5 cells/mL, 30°C, OD600 48 h, trial 3, read-out: MIC alone): > 81.6 µM
MIC (Candida albicans; 48 h, K1, fluconazole and MM:TM, […]10^5 cells/mL, 30°C, OD600 48 h, Avg., read-out: MIC alone): > 50 µg/mL
MIC (Candida albicans; 48 h, K1, fluconazole and MM:TM, […]10^5 cells/mL, 30°C, OD600 48 h, trial 1, read-out: MIC alone): > 25 µg/mL
MIC (Candida albicans; 48 h, K1, fluconazole and MM:TM, […]10^5 cells/mL, 30°C, OD600 48 h, trial 2, read-out: MIC alone): > 50 µg/mL
MIC (Candida albicans; 48 h, K1, fluconazole and MM:TM, […]10^5 cells/mL, 30°C, OD600 48 h, trial 3, read-out: MIC alone): > 25 µg/mL
MIC (Candida albicans; [1]): > 50 µg/mL
MIC (Candida albicans; NM20 with Fluconazole, C. albicans K1, […] 10^5 cells/mL): > 25 µg/mL
MIC (Candida albicans; SC5314, 48 h, SC5314, FLC and MM:TM, single agent, […]10^5 cells/mL, 30°C, OD600 48 h, read-out: MIC Alone): < 1 µM
MIC (Candida albicans; SC5314, 48 h, SC5314, Fluconazole and MM:TM, […]10^5 cells/mL, 30°C, OD600 48 h, Avg., read-out: MIC alone): < 1 µM
MIC (Candida albicans; SC5314, 48 h, SC5314, Fluconazole and MM:TM, […]10^5 cells/mL, 30°C, OD600 48 h, trial 1, read-out: MIC alone): < 0.7 µM
MIC (Candida albicans; SC5314, 48 h, SC5314, Fluconazole and MM:TM, […]10^5 cells/mL, 30°C, OD600 48 h, trial 2, read-out: MIC alone): < 2.6 µM
MIC (Candida albicans; SC5314, 48 h, SC5314, Fluconazole and MM:TM, […]10^5 cells/mL, 30°C, OD600 48 h, trial 3, read-out: MIC alone): < 1.3 µM
MIC (Candida albicans; SC5314, 48 h, SC5314, fluconazole and MM:TM, […]10^5 cells/mL, 30°C, OD600 48 h, Avg., read-out: MIC alone): < 0.3 µg/mL
MIC (Candida albicans; SC5314, 48 h, SC5314, fluconazole and MM:TM, […]10^5 cells/mL, 30°C, OD600 48 h, trial 1, read-out: MIC alone): < 0.2 µg/mL
MIC (Candida albicans; SC5314, 48 h, SC5314, fluconazole and MM:TM, […]10^5 cells/mL, 30°C, OD600 48 h, trial 2, read-out: MIC alone): < 0.8 µg/mL
MIC (Candida albicans; SC5314, 48 h, SC5314, fluconazole and MM:TM, […]10^5 cells/mL, 30°C, OD600 48 h, trial 3, read-out: MIC alone): < 0.4 µg/mL
MIC (Candida albicans; SC5314, NM20 with Fluconazole, C. albicans SC5314, […] 10^5 cells/mL): > 25 µg/mL
MIC (Candida albicans; SC5314, Table 43, MM:TM with Fluconazole, isolate SC5314, […] 10^5 cells/mL): < 0.3 µg/mL
MIC (Candida albicans; Table 43, MM:TM with Fluconazole, isolate K1, […] 10^5 cells/mL): > 50 µg/mL
MIC Combined (Candida albicans; K1, […]10^5 cells/mL, 30°C, OD600 48 h): <1.3^i μM
FIC (Candida albicans; K1, Fluconazole and MM:TM, Avg., Table 13): 0.002
MIC combo (Candida albicans; K1, Fluconazole and MM:TM, […]10^5 cells/mL, 30°C, OD600 48 h, Avg.): <1.3 µM
MIC combo (Candida albicans; K1, Fluconazole and MM:TM, […]10^5 cells/mL, 30°C, OD600 48 h, trial 1): <1.3 µM
MIC combo (Candida albicans; K1, Fluconazole and MM:TM, […]10^5 cells/mL, 30°C, OD600 48 h, trial 2): <2.6 µM
MIC combo (Candida albicans; K1, Fluconazole and MM:TM, […]10^5 cells/mL, 30°C, OD600 48 h, trial 3): <1.3 µM
FIC (Candida albicans; K1, Fluconazole and MM:TM, trial 1, Table 13): 0.004
FIC (Candida albicans; K1, Fluconazole and MM:TM, trial 2, Table 13): 0.004
FIC (Candida albicans; K1, Fluconazole and MM:TM, trial 3, Table 13): 0.004
FIC (Candida albicans; K1, fluconazole and MM:TM, Avg.): 0.002
MIC combo (Candida albicans; K1, fluconazole and MM:TM, […]10^5 cells/mL, 30°C, OD600 48 h, Avg.): <0.4 µg/mL
MIC combo (Candida albicans; K1, fluconazole and MM:TM, […]10^5 cells/mL, 30°C, OD600 48 h, trial 1): <0.4 µg/mL
MIC combo (Candida albicans; K1, fluconazole and MM:TM, […]10^5 cells/mL, 30°C, OD600 48 h, trial 2): <0.8 µg/mL
MIC combo (Candida albicans; K1, fluconazole and MM:TM, […]10^5 cells/mL, 30°C, OD600 48 h, trial 3): <0.4 µg/mL
FIC (Candida albicans; K1, fluconazole and MM:TM, trial 1): 0.004
FIC (Candida albicans; K1, fluconazole and MM:TM, trial 2): 0.004
FIC (Candida albicans; K1, fluconazole and MM:TM, trial 3): 0.004
improvement in antifungal activity (fluconazole MIC in combination with copolymer) (Candida albicans; K1 strain): ≥ 100 fold
FICazole (Candida albicans; [1]): 0.004
FICazole (Candida albicans; MM:TM (40:60) with Fluconazole, isolate SC5314 (Senstive), […]10^5 cells/mL, 30° C.): 1
MIC Combined (Candida albicans; SC5314, […]10^5 cells/mL, 30°C, OD600 48 h): <1.0 µM
FIC (Candida albicans; SC5314, Fluconazole and MM:TM, Avg., Table 13): 1
MIC combo (Candida albicans; SC5314, Fluconazole and MM:TM, […]10^5 cells/mL, 30°C, OD600 48 h, Avg.): <1.0 µM
MIC combo (Candida albicans; SC5314, Fluconazole and MM:TM, […]10^5 cells/mL, 30°C, OD600 48 h, trial 1): <0.7 µM
MIC combo (Candida albicans; SC5314, Fluconazole and MM:TM, […]10^5 cells/mL, 30°C, OD600 48 h, trial 2): <2.6 µM
MIC combo (Candida albicans; SC5314, Fluconazole and MM:TM, […]10^5 cells/mL, 30°C, OD600 48 h, trial 3): <1.3 µM
FIC (Candida albicans; SC5314, Fluconazole and MM:TM, trial 1, Table 13): 1
FIC (Candida albicans; SC5314, Fluconazole and MM:TM, trial 2, Table 13): 1
FIC (Candida albicans; SC5314, Fluconazole and MM:TM, trial 3, Table 13): 1
FIC (Candida albicans; SC5314, fluconazole and MM:TM, Avg.): 1
MIC combo (Candida albicans; SC5314, fluconazole and MM:TM, […]10^5 cells/mL, 30°C, OD600 48 h, Avg.): <0.3 µg/mL
MIC combo (Candida albicans; SC5314, fluconazole and MM:TM, […]10^5 cells/mL, 30°C, OD600 48 h, trial 1): <0.2 µg/mL
MIC combo (Candida albicans; SC5314, fluconazole and MM:TM, […]10^5 cells/mL, 30°C, OD600 48 h, trial 2): <0.8 µg/mL
MIC combo (Candida albicans; SC5314, fluconazole and MM:TM, […]10^5 cells/mL, 30°C, OD600 48 h, trial 3): <0.4 µg/mL
FIC (Candida albicans; SC5314, fluconazole and MM:TM, trial 1): 1
FIC (Candida albicans; SC5314, fluconazole and MM:TM, trial 2): 1
FIC (Candida albicans; SC5314, fluconazole and MM:TM, trial 3): 1
polymer efficacy against budding yeasts, 50% (C. krusei; C. krusei QC, CLSI QC isolate for susceptibility testing): 32
MIC50 (C. krusei; Pichia kudriavzevii, Candida krusei QC): 32 µg/mL (≈ 104 µM)
MIC50 (Cryptococcus amylolentus; CBS6039, Cryptococcus amolyentous CBS 6039): 16 µg/mL (≈ 52.2 µM)
MIC50 (Cryptococcus amylolentus; CBS6273, Cryptococcus amolyentous CBS 6273): 16 µg/mL (≈ 52.2 µM)
